Where “and” joins values, the source holds several entries; their conditions need not be identical. Equal values may be shown once. Read-outs that look alike come from different tables or passages of the source.
What was measured:
[1] = Pharmacokinetic data from toxicology study in dogs, one-hour intravenous infusion; format: in vivo; details: both sexes, dog
Protocol: In this study, two dogs (one male, one female) were administered β-lapachone intravenously in the HPBCD formulation over one hour. The animals received escalating doses of 5, 15, 30 and 45 mg/kg, with three to four days between doses. The mean response of the two dogs is shown at each dose level. […] Doses up to and including 30 mg/kg produced no toxicity.

[2] = Stability on incubation in human plasma; format: in vitro ADME; details: incubated in human plasma at 37° C. for 16 hrs; previous studies
E2F-1 = E2F-1 protein expression by Western blot in Paca-2 cells; format: cell-based, human; details: 0.5 hours exposure
Protocol: Cells were harvested and whole cell lysates were prepared and resolved by SDS/PAGE, then Western blots were prepared using E2F-1 antibody obtained from Santa Cruz Biotechnology (Santa Cruz, Calif.) and an enhanced chemiluminescence assay system (Amersham Pharmacia).

ASPC-1 = assay: Colony formation assay, combination with Taxol; format: cell-based, human; details: β-Lapachone 4 μM, Taxol 0.2 μM, 4 hours
Protocol: Control wells were treated with equivalent volumes of DMSO. After 4 hours cells were rinsed and fresh medium is added. Cultures were observed daily for 10-20 days and then were fixed and stained. […] DNA laddering formation and annexin staining indicate that cell death is due to apoptosis.

[3] = system: DU145 human prostate cancer; assay: Human prostate cancer xenograft model; format: in vivo, mice
Protocol: Tumors were measured throughout treatment and the post-treatment observation period. […] Tumor nodules were measured during the treatment period (Days 21-43) and at the end of observation (Day 56). Dose-related inhibition of tumor growth is seen, with little tumor growth following completion of treatment. […] Tumor nodules were measured pre-treatment (“Pre-Tx”), at the end of the 30-day treatment period (“Post-Tx”) and at the conclusion of the post treatment observation period 14 days following termination of treatment (“Post-Exp't”).

[4] = system: multiple myeloma (MM) cells; assay: MTT assay of multiple myeloma cells; format: cell-based, human; details: 4 μM, 24 h, all seven MM cell lines
human PBMC = assay: MTT cytotoxicity on PBMC; format: cell-based; details: 0.5, 2, 4, and 8 μM for 24 h
Protocol: Proliferating PBMC were generated by 72 h incubation with phytohemagglutinin (PHA) at 2 μg/mL.

CAOV-3 [5] = details: human, 4 h
Protocol: (§1) Control plates received the same volume of DMSO alone. After a 4 hour exposure the drug was carefully removed, and drug-free medium could be added. […] Colonies of greater than 50 cells were scored as survivors. Cells were maintained at 37° C. in 5% CO2 in complete humidity.

SK-MEL-28 [6] = details: human, 4 h
Protocol: as §1

[7] = in vivo
DU-145 = assay: cells; details: Homo sapiens, DU-145, read-out: LC50 (Replicate Results), DU-145, 4 hour exposure, colonies after 14-21 days
Protocol: as §1

CAOV-3 [8] = assay: cells; details: Homo sapiens, Caov-3, read-out: LC50 (Replicate Results), CAOV-3, 4 hour exposure, colonies after 14-21 days
Protocol: as §1

SK-MEL-28 [9] = assay: cells; details: Homo sapiens, SK-MEL-28, read-out: LC50 (Replicate Results), SK-MEL-28, 4 hour exposure, colonies after 14-21 days
Protocol: as §1

A549 lung cancer cells = assay: cells; details: Homo sapiens, A549, read-out: LC50, A549 Clone B surviving >LC99
[10] = system: PaCa-2 pancreatic cancer cells; assay: cells; details: Homo sapiens
in vivo = details: Sprague-Dawley, rat, 10 mg/kg, AUC* (estimated from toxicology experiments)
[11] = Study 5B: four week intravenous toxicity study in rats; details: for creatine kinase elevation: Day 1
Text: Blood samples were taken for hematology and clinical chemistry (Days 1, 15 and 24) and coagulation (Day 24 only) and clinical chemistry evaluation.

[12] = Study 2A: repetitive weekly intravenous toxicity study in dogs; details: for decreased hemoglobin: Day 23
Text: On Day 23 of the study, 4 animals/sex/group were euthanized (barbiturate overdose) followed by exsanguination and subjected to necropsy as described below.

[13] = Pharmacokinetics after intravenous infusion in rats, HPBCD formulation; details: male, Sprague-Dawley, rat, plasma
[14] = Study 2B: dose-range-finding toxicity study, single intravenous administration in dogs; details: two dogs
Protocol: The time interval between each dose was three to four days.
Whole blood samples (1 ml/sample) were also collected on each day of dose administration for toxicokinetics analysis.

Structure (SMILES): CC1(C)CCC2=C(O1)c1ccccc1C(=O)C2=O [β-lapachone, 3,4-dihydro-2,2-dimethyl-2H-naphtho [1,2-b]pyran-5,6-dione]
- AUC ([1]; in vivo, 5 mg/kg): 13.6 µg·h/mL
- half-life ([1]; plasma, intravenous, across the dose range, read-out: terminal half-life (converted)): ~16 h
- Cmax ([1]; plasma, iv, 5 mg/kg, 60 min infusion): 0.75 µg/mL
- AUC ([1]; plasma, iv, 5 mg/kg, 60 min infusion, mean of two dogs, read-out: AUC): 13.6 µg·h/mL
- half-life ([1]; plasma, iv, 5 mg/kg, 60 min infusion, read-out: T1/2): ~16 h
- Cmax ([1]; plasma, iv, 15 mg/kg, 60 min infusion): 1.15 µg/mL
- AUC ([1]; plasma, iv, 15 mg/kg, 60 min infusion, mean of two dogs, read-out: AUC): 20.2 µg·h/mL
- half-life ([1]; plasma, iv, 15 mg/kg, 60 min infusion, read-out: T1/2): ~16 h
- Cmax ([1]; plasma, iv, 30 mg/kg, 60 min infusion): 1.48 µg/mL
- AUC ([1]; plasma, iv, 30 mg/kg, 60 min infusion, mean of two dogs, read-out: AUC): 26 µg·h/mL
- half-life ([1]; plasma, iv, 30 mg/kg, 60 min infusion, read-out: T1/2): ~16 h
- stability in human plasma [2]: stable to degradation
- lowest concentration tested, at which E2F-1 protein is induced (E2F-1): 0.5 µM
- Colonies, Percentage of control (ASPC-1): 45 (1.9) Percentage of control
- tumor growth ([3]; 100 mg/kg in Lipiodol IP q3d, 30-day treatment): greater suppression of tumor growth
- tumor growth ([3]; 25 and 50 mg/kg in Lipiodol IP q3d): inhibited tumor growth in a dose-dependent manner
- cell viability in cultures [4]: significantly decreased
- cytotoxicity to fresh or proliferating PBMC growth (human PBMC): No cytotoxicity
- CC50 (CAOV-3 [5]): 1.44 µM
- CC50 (SK-MEL-28 [6]): 2.63 µM
- doses without significant toxicity ([7]; Sprague-Dawley (Hsd:SD) rats, Beagle dogs, rat and dog, iv, 4 weeks): less than 270 mg/m^2
- bone marrow suppression, gastrointestinal toxicity, alopecia [7]: no evidence of bone marrow suppression, gastrointestinal toxicity or alopecia
- major organ toxicity (myelosuppression, hepatic, renal, neurotoxicity, cardiotoxicity) [7]: No evidence of major organ toxicity
- CC50 (DU-145): 1.1 µM
- CC50 (CAOV-3 [8]): 1.56 µM
- CC50 (SK-MEL-28 [9]): 2.4 µM
- CC50 (A549 lung cancer cells): 1.5 µM
- CC50 ([10]; PaCa-2, read-out: LC50, PaCa-2 Clone A surviving >LC99): 2.59 µM
- CC50 ([10]; PaCa-2, read-out: LC50, PaCa-2 Clone B surviving >LC99): 2.72 µM
- CC50 ([10]; PaCa-2, read-out: LC50, PaCa-2 WT): 2.69 µM
- AUC (in vivo): 2.65 µg·h/mL
- mortality and clinical signs ([11]; 30 mg/kg dose group): No mortality or clinical signs of toxicity
- creatine kinase elevation ([11]; 30 mg/kg): 2 fold upper limit of normal
- creatine kinase elevation ([11]; 45 mg/kg): 4 fold upper limit of normal
- reticulocyte count ([11]; high dose group (45 mg/kg), Day 15, controls 2.1%): 4.1%
- findings ([12]; 15 mg/kg and 35 mg/kg): signs of reversible extravascular hemolysis
- bilirubin ([12]; Days 2 and 23, resolved by Day 37): dose-dependent slight increase
- ophthalmologic findings ([12]; dog, in vivo): no drug-related ophthalmologic findings
- splenic enlargement (animals) ([12]; high-dose (35 mg/kg)): 3/8
- decreased hemoglobin ([12]; high-dose (35 mg/kg)): ~5 g/dL
- mean decrease in body weight ([12]; high-dose (35 mg/kg), females): −4%
- mean decrease in body weight ([12]; high-dose (35 mg/kg), males): −7%
- splenic enlargement (animals) ([12]; mid-dose (15 mg/kg)): 5/8
- decreased hemoglobin ([12]; mid-dose (15 mg/kg)): ~3 g/dL
- half-life ([13]; intravenous, elimination half-life, one-hour infusion, doses in the range 5-15 mg/kg): 4.5 to 7 h
- AUC ([13]; iv, 5 mg/kg, 1-Hour Infusion): 1.28 ± 0.118 µg·h/mL
- AUC ([13]; iv, 5 mg/kg, 10-Min. Infusion): 1.2 ± 0.313 µg·h/mL
- Cmax ([13]; iv, 5 mg/kg, 1-Hour Infusion): 0.363 ± 0.021 µg/mL
- Cmax ([13]; iv, 5 mg/kg, 10-Min. Infusion): 0.834 ± 0.116 µg/mL
- half-life ([13]; iv, 5 mg/kg, T1/2, 1-Hour Infusion): 4.3 ± 0.6 h
- half-life ([13]; iv, 5 mg/kg, T1/2, 10-Min. Infusion): 3.6 ± 0.9 h
- Vd ([13]; iv, 5 mg/kg, Vdss, 1-Hour Infusion): 19.6 ± 0.8 L/kg
- Vd ([13]; iv, 5 mg/kg, Vdss, 10-Min. Infusion): 20 ± 6.3 L/kg
- AUC ([13]; iv, 10 mg/kg, 1-Hour Infusion): 2.65 ± 1.02 µg·h/mL
- Cmax ([13]; iv, 10 mg/kg, 1-Hour Infusion): 0.707 ± 0.134 µg/mL
- half-life ([13]; iv, 10 mg/kg, T1/2, 1-Hour Infusion): 4.9 ± 1.6 h
- Vd ([13]; iv, 10 mg/kg, Vdss, 1-Hour Infusion): 21 ± 5.3 L/kg
- AUC ([13]; iv, 15 mg/kg, 1-Hour Infusion): 4.9 ± 0.054 µg·h/mL
- Cmax ([13]; iv, 15 mg/kg, 1-Hour Infusion): 0.896 ± 0.13 µg/mL
- half-life ([13]; iv, 15 mg/kg, T1/2, 1-Hour Infusion): 7 ± 1.6 h
- Vd ([13]; iv, 15 mg/kg, Vdss, 1-Hour Infusion): 26.4 ± 5.7 L/kg
- Vd ([13]; iv, volume of distribution, intravenous infusion): 20 to 26 L/kg
- total bilirubin levels ([14]; 45 mg/kg dose, predose 0.38 and 0.26): 0.66 mg/dL and 0.87 mg/dL
- hemoglobin at end of study ([14]; 11-day study, declined from 14.9 and 13.5): 9.1 g/dL and 9.7 g/dL
